Measurements from US9738614B2, “Malignant and non-malignant disease treatment with Ras antagonists” (PISCES THERAPEUTICS, LLC, priority 2011, dated 2017).
Like-named read-outs stand apart in the source and are kept apart here.

Tests used:
U87MG cells = assay: Cell proliferation assay for U87MG cells; type: cell-based
Description: The adult glioblastoma cell line U87MG was obtained from a commercial source (ATCC). The pancreatic cancer cell line PANC-1 was obtained from a local laboratory (Indiana University). Both lines were grown in Iscove's Modified Dulbecco's Medium with 10% fetal bovine serum (FBS) at 37° C. and 5% CO2.
Compounds (1), (2), (3), (4), and (5), which are shown and described above, were each dissolved in ethanol at 10 mg/mL. A measured portion of the solution was pipetted into a microcentrifuge tube. Then, the ethanol was evaporated from each tube using a SpeedVac®, leaving just the compound in the tube. The appropriate amount of chloroform was added to the tube to produce a 0.1 M concentration. The solutions were placed on ice and in the dark so they could be pipetted into 10- and 20-μL aliquots in 1.5 mL microcentrifuge tubes. The solutions were frozen at […] with lids closed tightly and the tubes covered with foil.
Prior to treating the cells, a tube of the test compound was removed from the freezer and placed under a biosafety hood to evaporate the chloroform in the tubes. Then, dimethyl sulfoxide (DMSO) was added to the tubes to make the correct concentration to use in the experiment (0.1 M stock). The tubes were vortexed, and warm media with 10% FBS was slowly added to make the correct working concentrations to be used in the experiment. The compounds were directly added to each well for treatment.
(§1) U87MG cells were seeded in a 24-well plate, 5000 cells per well, and incubated overnight at 37° C. in serum-free media. The next day they were treated in triplicate with 50 and 100 μM of each test compound (1), (2), (3), (4), and (5) and the reference compound FTS. After five days, the cells were trypsinized (0.5%), stained with trypan blue, and counted to determine the cell number per well. The half-maximal inhibitory concentration (IC50) values were calculated using Multiplex Reader-Fit software made by MiraiBio Group, Hitachi Solutions America, Ltd. In a typical experiment, the control wells averaged 138,000 cells. The results are presented graphically in FIG. 1. The test compounds at 50 μM allowed the following U87MG cell proliferation compared to control: compound (1)—37%, compound (2)—18%, compound (3)—10%, compound (4)—40%, and compound (5)—0%. The reference compound FTS at 50 μM allowed 7% cell proliferation compared to control.
To further evaluate compounds (3) and (5), which inhibited the most cell growth in FIG. 1, more U87MG cells were seeded in 24-well plates, 5000 cells per well, and incubated overnight at 37° C. in serum-free media. The cells were treated the next morning in media with 5% serum in triplicate with standard concentrations of 6.25, 12.5, 25, and 50 μM of each test compound (3) and (5) and the reference compound FTS. After five days of treatment, the cells were trypsinized (0.5%) and then stained with trypan blue. Cells were counted to determine the number of cells per well. Again, the IC50 values were calculated using Multiplex Reader-Fit software made by MiraiBio Group, Hitachi Solutions America, Ltd. In a typical experiment, the control wells averaged 56,000 cells. The results are presented graphically in FIG. 2. The test compounds at 25 μM allowed the following U87MG cell proliferation compared to control: compound (3)—69% and compound (5)—0%. The reference compound FTS at 25 μM allowed over 50% cell proliferation compared to control.
Since the doses of compound (5) used above killed all of the cells, the dose curve was set up again using even lower doses of compound (5). U87MG cells were seeded in 24-well plates, 5000 cells per well, and incubated overnight at 37° C. in serum-free media. The cells were treated in triplicate with 6.25, 12.5, 25, and 50 μM of the reference compound FTS and 0.3125, 0.625, 1.25, 2.5, and 5.0 μM of the test compound (5) in media with 5% serum for five days. Then, the cells were trypsinized (0.5%) and stained with trypan blue, and the cell number per each well was determined. […]

GBM6 cells = assay: IC50 assay with GBM6 glioblastoma cells; type: cell-based; conditions: Homo sapiens, 1 to 5 μM, read-out: half-maximal effect on cell viability
Description: as §1
An IC50 assay similar to Example 6 above was performed with GBM6 cells prepared from minced, freshly harvested tumor tissue. GBM6 cells were grown in the presence of compound (5) at concentrations ranging from 1 to 5 μM.

ST88-14 cells = assay: IC50 assay with ST88-14 MPNST cells; type: cell-based, human; conditions: 0.1 to 50 μM, two separate experiments, read-out: half-maximal effects on cell viability
Description: as §1
IC50 assays similar to Example 6 above were performed with ST88-14 cells derived from a MPNST removed from a patient who had NF-1. The cells have loss-of-function mutations in both copies of the NF-1 gene, neurofibromin, which is discussed further above. ST88-14 cells were grown in concentrations of compound (5) ranging from 0.1 to 50 μM in two separate experiments. […]

sNF94.3 cells = assay: IC50 assay with sNF94.3 MPNST cells; type: cell-based; conditions: Homo sapiens, 0.5 to 20 μM, read-out: half-maximal effect on viability
Description: as §1
(§2) Two additional MPNST cell lines, sNF94.3 and sNFO2.2, were subjected to IC50 assays similar to Examples 6 and 11 above. Like the ST88-14 cells from Example 11, the sNF94.3 and sNFO2.2 cells came from NF-1 patients too.

sNFO2.2 cells = assay: IC50 assay with sNFO2.2 MPNST cells; type: cell-based; conditions: Homo sapiens, 0.5 to 20 μM, read-out: half-maximal effect on viability
Description: as §1, §2

JW16 cells = assay: IC50 assay with JW16 mouse MPNST cells; type: cell-based; conditions: 0.5 to 20 μM, read-out: half-maximal effect on viability
Description: as §1
Mouse models of NF-1 related MPNST have been made. Cells from two such mice, JW16 and JW19, have been isolated and propagated. The JW16 and JW19 cells were subjected to IC50 assays similar to Example 6 above.

MCF-7 cells = assay: IC50 assay with MCF-7 breast cancer cells; type: cell-based; conditions: Homo sapiens, MCF7, 0.6 to 10 μM, read-out: half-maximal decrease in viability
Description: as §1
MCF-7 breast cancer cells, which harbor an activating “K-Ras variant” mutation, were subjected to an IC50 assay similar to Example 6 above. This “K-Ras variant” mutation is in a site that a microRNA binds to, destabilizing the mRNA that encodes Ras. […] MCF-7 cells were grown in concentrations of compound (5) ranging from 0.6 to 10 μM.

IC50 (U87MG cells; Homo sapiens, U-87 MG, value quoted in Example 7, read-out: IC50 as determined on the U87MG cells): 2.5 µM | IC50 (GBM6 cells): 3.5 µM | IC50 (MCF-7 cells): 2 µM
Compound: CC(C)=CCC/C(C)=C/CC/C(C)=C/CSc1ccccc1C1=NCCN1 [compound (5), 2-(2-{[(2E,6E)-3,7,11-trimethyldodeca-2,6,10-trien-1-yl]sulfanyl}phenyl)-4,5-dihydro-1H-imidazole]
U87MG cell proliferation compared to control (U87MG cells; 2.5 μM, media with 5% serum, five days (FIG. 2)): 56% | U87MG cell proliferation compared to control (U87MG cells; 25 μM, media with 5% serum, five days (FIG. 2)): 0% | U87MG cell proliferation compared to control (U87MG cells; 50 μM, five days, trypan blue cell count (FIG. 1)): 0% | IC50 (ST88-14 cells; Homo sapiens, ST88-14, ST88-14 cells): 5.5 µM | IC50 (ST88-14 cells; ST88-14 cells): 6.6 µM | IC50 (sNF94.3 cells): 2.7 µM | IC50 (sNFO2.2 cells): 2.9 µM | IC50 (JW16 cells): 2.2 µM
